Source: patent publication US7220824B1, “Integrin-mediated drug targeting” (Bayer Aktiengesellschaft, priority 2000, dated 2007)
Where two headings read alike, the source gives them in different places.

Columns and labels:
[1] = tested on: hemopoietic stem cells (bone marrow cells); assay: CSF-induced proliferation of hemopoietic stem cells; format: cell-based, mice; conditions: Bone marrow cell, 168 h
Protocol: Bone marrow cells are flushed out of the femur of mice. 10^5 cells are incubated in McCoy 5A medium (0.3% agar) together with recombinant murine GM-CSF (Genzyme; parent cell colony formation) and the substances (10^−4 to 100 μg/ml) at 37° C. and 7% CO2. 7 days later, the colonies (<50 cells) and clusters (17–50 cells) are counted.

[2] = target: T1, αvβ3 receptor (αvβ3 from human A375 cells) (Homo sapiens, UniProt P05106+P06756); assay: αvβ3 binding test (echistatin displacement, WGA SPA beads)
T1 construct: αvβ3 from human A375 cells was purified analogously to a procedure which was described by Wong et al; endogenous in cells; host or cells: human A375 cells; the receptor was purified from the cells and used detergent-solubilised (n-octyl-glucopyranoside)
Protocol: αvβ3 from human A375 cells was purified analogously to a procedure which was described by Wong et al. (Molecular Pharmacology, 50, 529–537 (1996)). In each case, 10 μl of αvβ3 (5 ng) in TBS pH 7.6, 2 mM CaCl2, 1 mM MgCl2, 1% n-octyl-glucopyranoside (Sigma); 10 μl of test substance in TBS pH 7.6, 0.1% DMSO and 45 μl of TBS pH 7.6, 2 mM CaCl2, 1 mM MgCl2, 1 mM MnCl2 were incubated at room temperature for 1 h. In each case, 25 μl of WGA SPA beads (Amersham, 4 mg/ml) and 10 μl of echistatin ([…], Amersham, chloramine-T labelled) were then added. After 16 hours at room temperature, the samples were measured in a scintillation measuring apparatus (Wallac 1450).

B16F10 = assay: Growth inhibition test (MTT), cytotoxic action on tumour cell lines; format: cell-based; conditions: Mus musculus, B16-F10, 144 h, read-out: IC50 values of the cytotoxic action on tumour cell lines, B16F10
Protocol: (§1) The human large intestine cell lines SW 480 and HT29 (ATCC No. CCL 228 and HTB38), the human breast cell lines MDA-MB 231, MCF-7 and BT20 (ATCC No. HTB-, 26, 22 and 23) and the mouse melanoma cell line B16F 10 (CRL 6475) were grown to confluence in Roux dishes in RPMI 1640 medium with addition of 10% FCS. They were then trypsinized and taken up in RPMI plus 10% FCS to a cell count of 50,000 cells or, for B16F10, 20,000 cells per ml. 100 μl of cell suspension/well were added to a 96 microwell plate and incubated at 37° C. for 1 day in a CO2 incubator. A further 100 μl of RPMI medium and 1 μl of DMSO were then added with the test substances. The growth was checked after day 6. For this, 25 μl of MTT solution (3-(4,5-dimethylthiazol-2-yl)-2,5-diphenyltetrazolium bromide) was added to each well at a starting concentration of 5 mg/ml of H2O. The plate was incubated at 37° C. for 5 hours in a CO2 incubator. The medium was then aspirated and 100 μl of i-propanol/well were added. After shaking with 100 μl of H2O for 30 min, the extinction was measured at 595-nm using a Multiplate Reader (BIO-RAD 3550-UV).
(§2) The cytostatic action is indicated in Table 2 as an IC50 value, in each case for the individual cell lines.

BT20 = assay: as above; format: cell-based; conditions: Homo sapiens, BT-20, 144 h, read-out: IC50 values of the cytotoxic action on tumour cell lines, BT20
Protocol: as §1, §2

HT 29 = assay: as above; format: cell-based; conditions: Homo sapiens, HT-29, 144 h, read-out: IC50 values of the cytotoxic action on tumour cell lines, HT 29
Protocol: as §1, §2

MCF7 = assay: as above; format: cell-based; conditions: Homo sapiens, MCF7, 144 h, read-out: IC50 values of the cytotoxic action on tumour cell lines, MCF7
Protocol: as §1, §2

MDA-MB 231 = assay: as above; format: cell-based; conditions: Homo sapiens, MDA-MB-231, 144 h, read-out: IC50 values of the cytotoxic action on tumour cell lines, MDA-MB 231
Protocol: as §1, §2

SW480 = assay: as above; format: cell-based; conditions: Homo sapiens, SW480, 144 h, read-out: IC50 values of the cytotoxic action on tumour cell lines, SW480
Protocol: as §1, §2

[3] = αvβ3 purified from human A375 cells, labelled echistatin, read-out: IC50 values of the binding to the αvβ3 receptor
[4] = Mus musculus, read-out: IC50, CSF-induced proliferation of hemopoietic stem cells, mouse bone marrow cells, recombinant murine GM-CSF, 7 days, colony count

T1 sequence (P06756 31-889 limits assumed): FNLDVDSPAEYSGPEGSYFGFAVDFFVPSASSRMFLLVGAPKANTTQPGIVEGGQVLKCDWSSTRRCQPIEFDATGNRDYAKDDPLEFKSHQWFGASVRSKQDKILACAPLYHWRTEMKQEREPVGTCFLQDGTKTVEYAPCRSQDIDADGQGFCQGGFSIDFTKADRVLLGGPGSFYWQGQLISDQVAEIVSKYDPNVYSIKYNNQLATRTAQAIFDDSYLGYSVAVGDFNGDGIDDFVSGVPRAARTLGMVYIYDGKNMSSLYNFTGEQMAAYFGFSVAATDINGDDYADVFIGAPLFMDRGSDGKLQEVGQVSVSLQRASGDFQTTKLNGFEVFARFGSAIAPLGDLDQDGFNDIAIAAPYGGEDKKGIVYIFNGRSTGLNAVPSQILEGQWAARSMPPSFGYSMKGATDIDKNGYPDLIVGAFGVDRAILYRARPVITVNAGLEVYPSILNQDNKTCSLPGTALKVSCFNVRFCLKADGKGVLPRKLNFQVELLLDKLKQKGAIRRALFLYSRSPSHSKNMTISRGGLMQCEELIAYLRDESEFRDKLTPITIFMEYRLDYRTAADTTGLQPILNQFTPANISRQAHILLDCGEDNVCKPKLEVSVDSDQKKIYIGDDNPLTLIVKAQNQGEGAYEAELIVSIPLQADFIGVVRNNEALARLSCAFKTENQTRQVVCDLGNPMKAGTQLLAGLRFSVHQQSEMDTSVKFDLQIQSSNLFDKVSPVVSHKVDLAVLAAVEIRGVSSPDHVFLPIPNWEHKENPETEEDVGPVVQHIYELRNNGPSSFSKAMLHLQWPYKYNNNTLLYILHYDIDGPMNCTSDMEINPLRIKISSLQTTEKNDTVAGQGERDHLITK
T1 sequence (P06756 891-1048 partner limits assumed): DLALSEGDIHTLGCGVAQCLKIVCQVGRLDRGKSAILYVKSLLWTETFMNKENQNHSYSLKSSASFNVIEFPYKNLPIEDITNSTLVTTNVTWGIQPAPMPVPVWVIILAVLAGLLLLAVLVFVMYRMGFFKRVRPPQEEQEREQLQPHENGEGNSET
T1 sequence (P05106 27-788): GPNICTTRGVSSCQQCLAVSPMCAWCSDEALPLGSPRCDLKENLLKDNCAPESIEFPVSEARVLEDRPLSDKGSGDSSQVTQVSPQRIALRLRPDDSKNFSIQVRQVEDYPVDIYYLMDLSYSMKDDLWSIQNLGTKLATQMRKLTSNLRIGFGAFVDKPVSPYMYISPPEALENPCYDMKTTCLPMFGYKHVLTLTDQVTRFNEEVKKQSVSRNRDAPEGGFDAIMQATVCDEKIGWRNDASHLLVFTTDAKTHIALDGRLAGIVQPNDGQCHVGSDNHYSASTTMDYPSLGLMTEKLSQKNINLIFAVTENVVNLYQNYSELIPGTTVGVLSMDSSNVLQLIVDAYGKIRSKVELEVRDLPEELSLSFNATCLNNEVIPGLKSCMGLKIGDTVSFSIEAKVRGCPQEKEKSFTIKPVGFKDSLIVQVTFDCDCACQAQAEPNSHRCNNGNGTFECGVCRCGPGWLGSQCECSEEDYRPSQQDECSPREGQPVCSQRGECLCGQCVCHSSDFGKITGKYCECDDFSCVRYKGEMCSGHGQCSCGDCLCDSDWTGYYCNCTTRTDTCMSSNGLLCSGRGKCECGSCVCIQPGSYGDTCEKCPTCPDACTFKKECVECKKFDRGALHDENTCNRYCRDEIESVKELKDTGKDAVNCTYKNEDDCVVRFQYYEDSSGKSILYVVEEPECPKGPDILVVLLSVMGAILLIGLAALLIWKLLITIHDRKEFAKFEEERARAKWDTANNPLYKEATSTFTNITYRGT

Row | Compound | IC50 ([1]; mouse bone marrow cells, recombinant murine GM-CSF, 7 days, colony count, read-out: IC50, CSF-induced proliferation of hemopoietic stem cells) [µg/mL] | IC50 [2] [µM] | IC50 (B16F10) [µM] | IC50 (BT20) [µM] | IC50 (HT 29) [µM] | IC50 (MCF7) [µM] | IC50 (MDA-MB 231) [µM] | IC50 (SW480) [µM] | IC50 [2, 3] [µM] | IC50 [1, 4] [µg/mL]
1 | CC[C@@]1(O)C(=O)OCc2c1cc1n(c2=O)Cc2cc3ccccc3nc2-1 [Camptothecin, 20(S)-Camptothecin, reference compound] | 0.0003 |  |  |  |  |  |  |  |  | 
2 | CC[C@@]1(OC(=O)[C@@H](NC(=O)[C@H](Cc2c[nH]cn2)NC(=S)Nc2cccc(S(=O)(=O)NC(CC(=O)O)c3cccc(NS(=O)(=O)c4cccc(NC(=N)N)c4)c3)c2)C(C)C)C(=O)OCc2c1cc1n(c2=O)Cc2cc3ccccc3nc2-1 (stereo partly drawn) [Example 3.1] |  | 0.147 | 1 | 1 | 0.4 | 0.8 | 0.5 | 1 |  | 
3 | CC[C@@]1(OC(=O)[C@@H](NC(=O)[C@H](Cc2c[nH]cn2)NC(=S)Nc2ccc(S(=O)(=O)NC(CC(=O)O)c3cccc(NS(=O)(=O)c4cccc(NC(=N)N)c4)c3)cc2)C(C)C)C(=O)OCc2c1cc1n(c2=O)Cc2cc3ccccc3nc2-1 (stereo partly drawn) [Example 3.2] |  | 0.045 | 1 | 0.2 | 0.2 | 0.2 | 0.2 | 0.4 |  | 
4 | CC[C@@]1(OC(=O)[C@@H](NC(=O)[C@H](CCCCN)NC(=S)Nc2ccc(S(=O)(=O)NC(CC(=O)O)c3cccc(NS(=O)(=O)c4cccc(NC(=N)N)c4)c3)cc2)C(C)C)C(=O)OCc2c1cc1n(c2=O)Cc2cc3ccccc3nc2-1 (stereo partly drawn) [Example 3.4] |  |  | 0.5 | 0.7 | 0.2 | 0.7 | 0.3 | 0.2 | 0.065 | 
5 | CC[C@@]1(OC(=O)[C@@H](NC(=O)[C@H](Cc2cnc[nH]2)NC(=S)Nc2cccc(C(CC(=O)O)NS(=O)(=O)c3cccc(-c4cccc(NC(=O)Nc5nc6ccccc6[nH]5)c4)c3)c2)C(C)C)C(=O)OCc2c1cc1n(c2=O)Cc2cc3ccccc3nc2-1 (stereo partly drawn) [Example 3.6] |  | 0.022 | 2 | 1 | 0.3 | 0.4 | 0.4 | 0.4 |  | 
6 | CC[C@@]1(OC(=O)[C@@H](NC(=O)[C@H](Cc2cnc[nH]2)NC(=S)Nc2ccc(CC(NS(=O)(=O)c3cc(-c4cccc(NC(=O)Nc5nc6ccccc6[nH]5)c4)ccc3OC)C(=O)O)cc2)C(C)C)C(=O)OCc2c1cc1n(c2=O)Cc2cc3ccccc3nc2-1 (stereo partly drawn) [Example 3.7] |  | 0.111 | 0.8 | 0.6 | 0.2 | 0.4 | 0.3 | 0.4 |  | 
7 | CC[C@@]1(OC(=O)[C@@H](NC(=O)[C@H](Cc2cnc[nH]2)NC(=S)Nc2ccc(CC(NS(=O)(=O)c3cccc(-c4cccc(NC(=O)Nc5nc6ccccc6[nH]5)c4)c3)C(=O)O)cc2)C(C)C)C(=O)OCc2c1cc1n(c2=O)Cc2cc3ccccc3nc2-1 (stereo partly drawn) [Example 3.9] |  | 0.22 | 1 | 0.5 | 0.06 | 0.15 | 0.06 | 0.4 |  | 
8 | CCCNC(=O)Nc1cccc(-c2ccc(CC(NS(=O)(=O)c3cccc(NC(=S)N[C@@H](Cc4c[nH]cn4)C(=O)N[C@H](C(=O)O[C@]4(CC)C(=O)OCc5c4cc4n(c5=O)Cc5cc6ccccc6nc5-4)C(C)C)c3)C(=O)O)cc2)c1 (stereo partly drawn) [Example 3.10] |  |  | 0.8 | 0.4 | 0.35 | 0.2 | 0.2 | 0.3 | 0.154 | 
9 | CC[C@@]1(OC(=O)[C@@H](NC(=O)C(Cc2c[nH]cn2)NC(=S)Nc2ccc(CC(NS(=O)(=O)c3ccc(-c4cccc(NC(=O)Nc5nc6ccccc6[nH]5)c4)cc3)C(=O)O)cc2)C(C)C)C(=O)OCc2c1cc1n(c2=O)Cc2cc3ccccc3nc2-1 (stereo partly drawn) [Example 3.11] |  | 0.097 | 0.6 | 0.5 | 0.3 | 0.25 | 0.4 | 0.6 |  | 
10 | CCCNC(=O)Nc1cccc(S(=O)(=O)Nc2cccc(C(CC(=O)O)NS(=O)(=O)c3ccc(NC(=S)N[C@@H](Cc4c[nH]cn4)C(=O)N[C@H](C(=O)O[C@]4(CC)C(=O)OCc5c4cc4n(c5=O)Cc5cc6ccccc6nc5-4)C(C)C)cc3)c2)c1 (stereo partly drawn) [Example 3.12] |  | 0.39 | 0.25 | 0.15 | 0.15 | 0.1 | 0.15 | 0.3 |  | 
11 | CCCNC(=O)Nc1cccc(-c2ccc(CC(NC(=O)N[C@H](C(=O)O[C@]3(CC)C(=O)OCc4c3cc3n(c4=O)Cc4cc5ccccc5nc4-3)C(C)C)C(=O)O)cc2)c1 (stereo partly drawn) [Example 3.14] |  |  | 0.2 | 0.1 | 0.1 | 0.08 | 0.15 | 0.15 | 0.021 | 
12 | CCCNC(=O)Nc1cccc(-c2ccc(CC(NC(=S)Nc3cccc4nc5c(cc34)Cn3c-5cc4c(c3=O)COC(=O)[C@]4(O)CC)C(=O)O)cc2)c1 (stereo partly drawn) [Example 3.15] |  |  | 6 | 2 | 0.2 | 0.3 | 0.2 | 0.2 | 0.061 | 
13 | CCCNC(=O)Nc1cccc(S(=O)(=O)Nc2cccc(C(CC(=O)O)NC(=S)Nc3cccc4nc5c(cc34)Cn3c-5cc4c(c3=O)COC(=O)[C@]4(O)CC)c2)c1 (stereo partly drawn) [Example 3.16] |  |  | 1 | 0.7 | 0.1 | 0.3 | 1 | 0.5 | 0.051 | 
14 | CC[C@@]1(OC(=O)CCC(=O)NC(CC(=O)O)c2cccc(NS(=O)(=O)c3cccc(NC(=N)N)c3)c2)C(=O)OCc2c1cc1n(c2=O)Cc2cc3ccccc3nc2-1 (stereo partly drawn) [Example 3.18] |  | 0.079 | 1 | 0.9 | 0.18 | 0.6 | 0.5 | 0.3 |  | 
15 | CC[C@@]1(OC(=O)[C@@H](NC(=O)CNC(=O)CCCC(=O)NC(CC(=O)O)c2cccc(NS(=O)(=O)c3cccc(NC(=N)N)c3)c2)C(C)C)C(=O)OCc2c1cc1n(c2=O)Cc2cc3ccccc3nc2-1 (stereo partly drawn) [Example 3.19] |  |  | 6 | 4 | 0.5 | 5 | 2 | 1.5 | 0.048 | 
16 | CCCNC(=O)Nc1cccc(S(=O)(=O)Nc2cccc(C(CC(=O)O)NC(=O)CCCC(=O)NCC(=O)N[C@@H](CC(C)C)C(=O)O[C@]3(CC)C(=O)OCc4c3cc3n(c4=O)Cc4cc5ccccc5nc4-3)c2)c1 (stereo partly drawn) [Example 3.20] |  |  |  |  |  |  |  |  | 0.265 | 0.1
17 | CCCNC(=O)Nc1cccc(S(=O)(=O)Nc2cccc(C(CC(=O)O)NC(=O)CCCC(=O)N[C@@H](CC(C)C)C(=O)NCC(=O)N[C@@H](CC(C)C)C(=O)O[C@]3(CC)C(=O)OCc4c3cc3n(c4=O)Cc4cc5ccccc5nc4-3)c2)c1 (stereo partly drawn) [Example 3.21] |  |  |  |  |  |  |  |  | 0.549 | 0.08
18 | CCCNC(=O)Nc1cccc(S(=O)(=O)Nc2cccc(C(CC(=O)O)NC(=O)CCCC(=O)NCC(=O)N[C@@H](CC(C)C)C(=O)N[C@H](C(=O)O[C@]3(CC)C(=O)OCc4c3cc3n(c4=O)Cc4cc5ccccc5nc4-3)C(C)C)c2)c1 (stereo partly drawn) [Example 3.22] |  |  |  |  |  |  |  |  | 0.531 | 0.006
